Measured values published in patent US10124033B2, “Peptides and methods of use” (BAXALTA INCORPORATED, priority 2014, dated 2018).
Blank lines part the entries; values can stand above or below the compound they belong to. Non-standard residues stand in square brackets, D forms with d. Residues, ends and D or L forms follow the SMILES beside them. Tle = CC(C)(C)[C@H](N)C(=O)O

How the values were obtained:
[1] = target: T1, Protein S/APC cofactor activity (Homo sapiens, UniProt P07225); experiment: CAT assay in pooled normal plasma supplemented with 3 nM APC; assay type: biochemical; conditions: 6 pM TF, 15 μM phospholipids
T1 construct: host or cells: plasma
T1 sequence (P07225 41-676 limits assumed): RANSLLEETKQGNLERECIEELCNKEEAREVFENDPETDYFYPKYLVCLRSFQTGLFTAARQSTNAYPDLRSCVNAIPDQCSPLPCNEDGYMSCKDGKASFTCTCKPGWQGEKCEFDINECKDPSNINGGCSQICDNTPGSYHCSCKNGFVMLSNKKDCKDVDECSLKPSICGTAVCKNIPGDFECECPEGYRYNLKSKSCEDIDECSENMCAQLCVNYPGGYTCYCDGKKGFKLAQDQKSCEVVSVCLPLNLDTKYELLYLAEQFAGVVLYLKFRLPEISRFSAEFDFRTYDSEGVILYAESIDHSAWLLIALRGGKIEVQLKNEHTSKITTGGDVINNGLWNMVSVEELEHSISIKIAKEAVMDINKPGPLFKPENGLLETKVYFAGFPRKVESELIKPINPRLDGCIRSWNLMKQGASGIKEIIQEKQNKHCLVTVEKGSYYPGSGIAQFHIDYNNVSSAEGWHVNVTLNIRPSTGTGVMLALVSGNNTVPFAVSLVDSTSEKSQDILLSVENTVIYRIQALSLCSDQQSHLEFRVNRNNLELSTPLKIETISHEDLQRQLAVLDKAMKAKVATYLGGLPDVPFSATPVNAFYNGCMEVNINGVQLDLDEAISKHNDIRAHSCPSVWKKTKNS
Experimental: Peptides also were tested for improvement of Protein S/APC-dependent thrombin generation in hemophilic plasma using a CAT assay. Protein S enhances the anticoagulation of APC in plasma. The CAT assay quantifies the effect of Protein S on APC-mediated thrombin generation initiated via the extrinsic coagulation pathway (Nicolaes, Blood Coagul. Fibrinolysis, 8:28 (1997)). APC (35 nM) and Protein S (25 nM) was added to Protein 5-depleted plasma, and plasma samples were incubated with high titer heat inactivated anti-human FVIII plasma raised in goat (4490 BU/ml; Baxter BioScience, Vienna, Austria; 50 BU/ml final plasma concentration). Thrombin formation in plasma was followed by calibrated automated thrombography (CAT) in a Fluoroskan Ascent® reader (Thermo Labsystems, Helsinki, Finland) and quantified via the thrombin peak-height. Thrombin generation was determined at high tissue factor (TF) concentration in the absence and in the presence of APC at a concentration that reduces the peak height to 20%. The inhibitory effect of peptides described herein on the APC cofactor activity of Protein S (PS) in plasma was measured in FVIII-inhibited pooled normal plasma supplemented with APC. Complete (100%) Protein S/APC inhibition is the height of the thrombin peak without addition of APC. Lack of (0%) PS/APC inhibition correlates to the thrombin peak-height value with a certain amount of APC. Peptides were ranked by their normalized values in comparison to the mean of wild-type controls including SD at two defined peptide concentrations (EC50 and EC90). […] For the assays, pooled normal plasma was supplemented with 3 nM APC and triggered with 6 pM TF, and 15 μM phospholipids (DOPC/POPS 80/20). Stock APC was diluted with TF-PL-MIX to 24 nM (plasma concentration: 3 nM).

Protein S = target: T2, Protein S (Homo sapiens, UniProt P07225); experiment: LANCE IC50 assay (competition TR-FRET) with tracer JBS0684; assay type: binding; conditions: Table 4, multiple substitutions in JBS2572; read-out: LANCE IC50
T2 sequence (P07225 41-676 limits assumed): T1 sequence (P07225 41-676 limits assumed)
Experimental: Peptides also were characterized in a competition, homogenous europium-based TR-FRET assay (LANCE IC50 assay) using JBS0684 as a tracer (i.e., competitor for Protein S binding). The following reagents were mixed together in a Perkin-Elmer ProxiPlate MTP well (indicated concentration is the final concentration): Eu-labeled Protein S (10 nM), Ulight™-labeled Streptavidin (100 nM), tracer (JBS0684 (300 nM)), and peptide (titrated in three-fold dilution steps). The final volume was 50 μl/well. The reaction mix was incubated for 1 hour at room temperature, then the fluorescence emission at 665 nm was recorded on a multi-mode reader (SpectraMax® M5, Molecular Devices) using the following instrument settings: Ex 340 nm, Em 665 nm, delay 50 μsec, integration 100 μsec, reads 100. Binding of tracer peptides to soluble europium-labeled Protein S was detected by Streptavidin labeled with an acceptor fluorophor (ULight™). Inhibition of tracer-binding to Protein S by a non-biotinylated peptide results in a decrease of TR-FRET between the Eu-labeled Protein S and ULight™-labeled Streptavidin. IC50 values were obtained from peptide titration curves at constant tracer concentration using non-linear regression of the fluorescence emission signals at 665 nm.

C4BP/PS complex = target: T3, C4BP/PS complex (Homo sapiens, UniProt P07225); experiment: LANCE IC50 assay on preformed C4BP/PS complex; assay type: binding; conditions: two hours of incubation, 100 nM peptide
T3 sequence (P07225 41-676 limits assumed): T1 sequence (P07225 41-676 limits assumed)
Experimental: To investigate the effect of the peptides described herein on PS/C4BP complexes, a LANCE IC50 assay was established using methods similar to those described above. JBS2572 or JBS3216 was added to a preformed C4BP/PS complex. Changes in the complex concentration were followed by recording the TR-FRET signal. For both peptides, a time- and concentration-dependent dissociation of the C4BP/PS complex was observed. The IC50 of JBS3216 was 0.3 nM, and the IC50 of JBS2572 was 2 nM. The time-dependency of the complex reduction was similar for both peptides. After two hours of incubation in the presence of 100 nM JBS2572 or JBS3216, the C4BP/PS complex was reduced to 60% and 50%, respectively. In addition, binding of biotinylated JBS2572 to Protein S was inhibited by C4BP in the LANCE IC50 assay. Pull-down experiments where JBS2697 was coupled to streptavidin sepharose and incubated for one hour at room temperature with (a) Protein S (1.6 pmol) (b) C4BP (8.5 pmol) and (c) Protein S (1.6 pmol)+C4BP (8.5 pmol) supported the results from the modified LANCE IC50 assay.

[2] = target: T4, human full-length Protein S (Homo sapiens, UniProt P07225); experiment: Biacore (surface plasmon resonance) on immobilized Protein S; assay type: binding; conditions: Biacore
T4 construct: using human full-length Protein S and human GAS6
T4 sequence (P07225 41-676 limits assumed): T1 sequence (P07225 41-676 limits assumed)
Experimental: Protein S affinity also was determined via Biacore (Biacore 3000 or Biacore T200) using human full-length Protein S and human GAS6. Briefly, 1000 RU of Protein S or GAS6 were immobilized on a CMS chip. In order to probe the kinetics of Protein S binding peptides to Protein S, the peptides were injected at various concentrations in a HBS-buffer containing 3 mM CaCl2 and 1% DMSO to the flow cell and allowed to interact with the immobilized proteins on the sensor chip. The chip could be regenerated with 4 M MgCl2 in HBS-buffer. Sensorgrams were fitted to a Langmuir binding model for the determination of kon and koff and the calculation of KD. Peptides were tested on their specificity to Protein S with peptide binding studies on the anti-target GAS6.

[3] = plasma stability in pooled normal human plasma; assay type: in vitro ADME
Experimental: (§1) Affinity and activity of all 18 peptides was improved compared to parent JBS2572. […] Activity and stability were improved up to 1.5-fold. Plasma stability was determined in pooled normal human plasma and mouse plasma at 37° C.; exemplary results also are provided in Table 3.

[4] = plasma stability in mouse plasma; assay type: in vitro ADME; conditions: 37° C.
Experimental: as §1

thrombin generation = thrombin generation in non-human mammals; assay type: biochemical; conditions: cynomolgous monkey, marmoset monkey, pig, sheep, dog, rabbit, rat, and mouse
[5] = tested on: Protein S/APC dependent thrombin generation; experiment: CAT assay in plasmas from individuals with severe hemophilia A; assay type: biochemical, human; conditions: plasma of severe hemophilia A patients

EC50 [1]: 127 nM
IC50 (Protein S): 1.9 nM
Compound: CSCC[C@H](NC(=O)[C@H](Cc1ccc(O)cc1)NC(=O)[C@@H](NC(=O)[C@H](CC(=O)O)NC(=O)[C@H](CC(N)=O)NC(=O)[C@H](CC(N)=O)NC(=O)[C@H](Cc1ccc(O)cc1)NC(=O)[C@H](CC(=O)O)NC(=O)[C@H](Cc1ccc(O)cc1)NC(=O)[C@H](Cc1c[nH]c2ccccc12)NC(=O)CNC(=O)[C@H](C)NC(=O)[C@H](CCC(=O)O)NC(=O)[C@@H](NC(=O)[C@H](CC(C)C)NC(=O)CNC(=O)[C@H](Cc1ccc(O)cc1)NC(C)=O)C(C)C)[C@@H](C)O)C(=O)N[C@@H](CCC(=O)O)C(=O)N[C@@H](Cc1ccccc1)C(=O)N[C@H](C(N)=O)[C@@H](C)O [JBS3201] (Ac-YGLVEAGWYDYNNDTYMEFT-NH2)

EC50 [1]: 127 nM
IC50 (Protein S): 1.8 nM
Compound: CSCC[C@H](NC(=O)[C@H](Cc1ccc(O)cc1)NC(=O)[C@H](Cc1c[nH]cn1)NC(=O)[C@H](CC(=O)O)NC(=O)[C@H](Cc1ccccc1)NC(=O)[C@H](CC(N)=O)NC(=O)[C@H](Cc1ccc(O)cc1)NC(=O)[C@H](CC(=O)O)NC(=O)[C@H](Cc1ccc(O)cc1)NC(=O)[C@H](Cc1c[nH]c2ccccc12)NC(=O)CNC(=O)[C@H](C)NC(=O)[C@H](CO)NC(=O)[C@@H](NC(=O)[C@H](CC(C)C)NC(=O)CNC(=O)[C@@H](NC(C)=O)[C@@H](C)O)C(C)(C)C)C(=O)N[C@@H](CCC(=O)O)C(=O)N[C@@H](Cc1ccccc1)C(=O)N[C@H](C(N)=O)[C@@H](C)O [JBS3203, Ac-TGL-Tle-SAGWYDYNFDHYMEFT-NH2] (Ac-TGL[Tle]SAGWYDYNFDHYMEFT-NH2)

C4BP/PS complex reduced to (C4BP/PS complex): 50%
koff ([2]; Table 3, read-out: koff): 0.000233 s⁻¹
kon ([2]; Table 3, read-out: kon): 1.14e+06 M⁻¹ s⁻¹
Kd ([2]; affinity-matured and modified peptides, read-out: KD): 0.2 nM
binding activity remaining after incubation in human plasma ([3]; 24 hours of incubation in human plasma): 50%
Stability in human plasma; 6 hours [%] ([3]; pooled normal human plasma, 37° C., 6 hours): 80 ± 2%
Stability in mouse plasma; 4 hours [%] [4]: 66 ± 23%
EC50 [5]: 85 nM
Compound: CC(=O)N[C@@H](CCC(=O)O)C(=O)N[C@@H](Cc1ccc(O)cc1)C(=O)N[C@@H](Cc1ccc(O)cc1)C(=O)N[C@H](C(=O)N[C@@H](CO)C(=O)N[C@@H](C)C(=O)NCC(=O)N[C@@H](Cc1c[nH]c2ccccc12)C(=O)N[C@@H](Cc1ccc(O)cc1)C(=O)N[C@@H](CC(=O)O)C(=O)N[C@@H](Cc1ccc(O)cc1)C(=O)N[C@@H](CC(N)=O)C(=O)N[C@H](C(=O)N[C@@H](CC(=O)O)C(=O)N[C@H](C(=O)N[C@@H](Cc1ccc(O)cc1)C(=O)N[C@@H](Cc1ccc(O)cc1)C(=O)N[C@@H](CCC(=O)O)C(=O)N[C@@H](Cc1ccccc1)C(=O)N[C@@H](CCC(=O)O)C(N)=O)[C@@H](C)O)[C@@H](C)O)C(C)C [JBS3216] (Ac-EYYVSAGWYDYNTDTYYEFE-NH2)
thrombin generation in non-human mammals (thrombin generation): improved thrombin generation

EC50 [1]: 155 nM
IC50 (Protein S): 2.2 nM
Compound: CSCC[C@H](NC(=O)[C@H](Cc1ccc(O)cc1)NC(=O)[C@H](Cc1c[nH]cn1)NC(=O)[C@H](CC(=O)O)NC(=O)[C@H](Cc1ccccc1)NC(=O)[C@H](CC(N)=O)NC(=O)[C@H](Cc1ccc(O)cc1)NC(=O)[C@H](CC(=O)O)NC(=O)[C@H](Cc1ccc(O)cc1)NC(=O)[C@H](Cc1c[nH]c2ccccc12)NC(=O)CNC(=O)[C@H](C)NC(=O)[C@H](CO)NC(=O)[C@@H](NC(=O)[C@H](CC(C)C)NC(=O)CNC(=O)[C@H](Cc1ccc(O)cc1)NC(C)=O)C(C)C)C(=O)N[C@@H](CCC(=O)O)C(=O)N[C@@H](Cc1ccccc1)C(=O)N[C@H](C(N)=O)[C@@H](C)O [JBS3196] (Ac-YGLVSAGWYDYNFDHYMEFT-NH2)
